Measured values taken from patent US20220257974A1, “PHOTOBIOMODULATION METHOD AND SYSTEM FOR INDUCING ACTIVITY OF BRAINDERIVED NERVE GROWTH FACTOR IN HIPPOCAMPAL TISSUE” (INDUSTRY ACADEMIC COOPERATION FOUNDATION KEIMYUNG UNIVERSITY, priority 2019, published 2022).

How the values were obtained:
[1] = test system: BDNF; assay: RT-PCR of BDNF expression in HT-22 cell; type: cell-based; conditions: H2O2 treatment
Source text: The used […] BDNF, forward [NT], and reverse [NT]; glutathione peroxidase (GPx), forward [NT], and reverse [NT]; superoxide dismutasee 1 (SOD1), forward [NT], and reverse [NT]; glutathione reductase (GR), forward [NT], and reverse [NT]; and h-GAPDH transfer [NT], reverse [NT]. All experiments were implemented three times.

[2] = test system: p-ERK and p-CREB; assay: Western blot analysis of ERK and CREB phosphorylation in HT-22 cells; type: cell-based; conditions: H2O2 treatment
Description: The level of protein expression was evaluated by Western blot analysis. Cells were dissolved and centrifuged at 16,000 g. Then, the supernatant was electrophoresed at 12% SDA-PAGE and transferred to a nitrocellulose membrane. After blocking with 5% skim milk among Tween (0.05%)/PBS for 1 hour, the membrane was detected with primary antibody and a horseradish peroxidase (HRP)-conjugated antibody. The immunoreactive band was visualized using West Femto Chemi-luminescent substrate (Thermo). Protein levels were standardized with -actin expression using ChemiDOC XRS+ (Bio-Rad, Hercules, Calif., USA).

[3] = test system: HT-22 cells; assay: MTT analysis of cell survival under H2O2-induced oxidative stress; type: cell-based; conditions: without LED light
Description: The protection against apoptosis was analyzed using CCK-8 kit (Dojindo, Gaithersburg, Md.) and MTT as follows: HT-22 cells (5×10^5/ml) were plated on a 96-well plate and cultured in 100 µL of DMEM medium for 24 hours. Various concentrations of H2O2 were added to the cells, and the cells were cultured for 24 hours with LED irradiation of 660 nm. Then, 10 µL of MTT solution (5 mg/ml MTT in PBS) was added to each well and cultured at 37° C. for 2 hours. Absorbance was measured at 450 nm and 564 nm with a Victor multi label counter (Wallac, Turku, Finland).
The hippocampus HT-22 cell line was used to evaluate the effect of H2O2-induced oxidative stress on cell survival and apoptosis inhibitory effect by 660 nm of LED light (FIG. 2). […] In contrast, treatment with 660 nm of LED light increased cell survival rates to 88.4, 66.2, and 22.0%, respectively.

[4] = test system: BDNF; conditions: PTSD-induced mice; cited from earlier work

| SMILES | BDNF expression [1] | p-ERK and p-CREB levels [2] | cell survival rate ([3]; H2O2 100M) [%] | cell survival rate ([3]; H2O2 300M) [%] | cell survival rate ([3]; H2O2 1000M) [%] | expression of BDNF and exercise ability [4] |
| --- | --- | --- | --- | --- | --- | --- |
| OO [H2O2] | reduced BDNF expression | increased p-ERK and p-CREB levels | 72.7 | 57.3 | 20.7 |  |
| CNCCC(Oc1ccc(C(F)(F)F)cc1)c1ccccc1 (stereo not drawn) [fluoxetine] |  |  |  |  |  | improved |
